Measurements reported in the NIST ThermoML archive (doi:10.1016/j.jct.2010.08.010).

Conditions: Liquid, Buoyancy - hydrostatic balance with magnetic suspension - one sinker

C1CCCCC1 [cyclohexane]
Conditions	mass density [kg/m3]
293.15 K, 99.46 kPa	778.632
293.15 K, 1102 kPa	779.471
293.15 K, 2002.4 kPa	780.22
293.15 K, 4003.9 kPa	781.856
293.15 K, 6003.8 kPa	783.454
293.15 K, 8003.3 kPa	785.025
293.15 K, 10042 kPa	786.595
293.15 K, 12046 kPa	788.105
293.15 K, 13919 kPa	789.495
293.15 K, 15982 kPa	790.995
293.15 K, 17946 kPa	792.401
293.15 K, 20017 kPa	793.855
313.15 K, 102.48 kPa	759.667
313.15 K, 1139 kPa	760.675
313.15 K, 2012.2 kPa	761.509
313.15 K, 4102.4 kPa	763.47
313.15 K, 5932.8 kPa	765.157
313.15 K, 7910.5 kPa	766.936
313.15 K, 10018 kPa	768.784
313.15 K, 12069 kPa	770.545
313.15 K, 13965 kPa	772.137
313.15 K, 15902 kPa	773.737
313.15 K, 17956 kPa	775.394
313.15 K, 20142 kPa	777.123
333.15 K, 1112.4 kPa	741.367
333.15 K, 2043.6 kPa	742.401
333.15 K, 3988 kPa	744.517
333.15 K, 5966.8 kPa	746.613
333.15 K, 8141.8 kPa	748.853
333.15 K, 10007 kPa	750.72
333.15 K, 11994 kPa	752.664
333.15 K, 14093 kPa	754.666
333.15 K, 15963 kPa	756.414
333.15 K, 17995 kPa	758.261
333.15 K, 19861 kPa	759.929
353.15 K, 1109.9 kPa	721.547
353.15 K, 1973.2 kPa	722.669
353.15 K, 4000 kPa	725.242
353.15 K, 6001.3 kPa	727.698
353.15 K, 8046.5 kPa	730.125
353.15 K, 10046 kPa	732.423
353.15 K, 11820 kPa	734.413
353.15 K, 13860 kPa	736.633
353.15 K, 15940 kPa	738.835
353.15 K, 18023 kPa	740.978
353.15 K, 20003 kPa	742.965
373.15 K, 1115.5 kPa	701.065
373.15 K, 1950.1 kPa	702.346
373.15 K, 4154.1 kPa	705.638
373.15 K, 6126 kPa	708.455
373.15 K, 8029.4 kPa	711.079
373.15 K, 9951.2 kPa	713.63
373.15 K, 12097 kPa	716.383
373.15 K, 13877 kPa	718.592
373.15 K, 16148 kPa	721.319
373.15 K, 18078 kPa	723.568
373.15 K, 19877 kPa	725.607
393.15 K, 1162.9 kPa	679.792
393.15 K, 1960.3 kPa	681.265
393.15 K, 3901.4 kPa	684.723
393.15 K, 5983.9 kPa	688.253
393.15 K, 7986.4 kPa	691.487
393.15 K, 9903.3 kPa	694.452
393.15 K, 11975 kPa	697.527
393.15 K, 13821 kPa	700.163
393.15 K, 16029 kPa	703.195
393.15 K, 18027 kPa	705.845
393.15 K, 20004 kPa	708.371
413.15 K, 1196.7 kPa	657.32
413.15 K, 2172.6 kPa	659.527
413.15 K, 4146.4 kPa	663.767
413.15 K, 6122.3 kPa	667.756
413.15 K, 8132.6 kPa	671.583
413.15 K, 10013 kPa	674.989
413.15 K, 11993 kPa	678.397
413.15 K, 14004 kPa	681.703
413.15 K, 16053 kPa	684.936
413.15 K, 18098 kPa	688.022
413.15 K, 19935 kPa	690.694
433.15 K, 1086.7 kPa	632.817
433.15 K, 2070.6 kPa	635.63
433.15 K, 4050.3 kPa	640.931
433.15 K, 6077 kPa	645.937
433.15 K, 8181.7 kPa	650.742
433.15 K, 10077 kPa	654.811
433.15 K, 12111 kPa	658.913
433.15 K, 13890 kPa	662.325
433.15 K, 15959 kPa	666.096
433.15 K, 18073 kPa	669.76
433.15 K, 20010 kPa	672.969
453.15 K, 2100.8 kPa	609.942
453.15 K, 4117.3 kPa	616.844
453.15 K, 6121.3 kPa	623.004
453.15 K, 8117.4 kPa	628.596
453.15 K, 9915.4 kPa	633.254
453.15 K, 11931 kPa	638.115
453.15 K, 13935 kPa	642.628
453.15 K, 15959 kPa	646.918
453.15 K, 18103 kPa	651.206
453.15 K, 19890 kPa	654.601
473.15 K, 2403.5 kPa	582.448
473.15 K, 3924.9 kPa	589.431
473.15 K, 6045.2 kPa	597.933
473.15 K, 8093.2 kPa	605.148
473.15 K, 9884.3 kPa	610.832
473.15 K, 11911 kPa	616.733
473.15 K, 13943 kPa	622.171
473.15 K, 16018 kPa	627.319
473.15 K, 18133 kPa	632.216
473.15 K, 20025 kPa	636.335
